Assay results taken from the supplement of paper PMC11061612.

Columns and labels:
Assay in all cases: combination Emax (second highest fraction inhibited in the dose matrix, 72 h); higher = more inhibition; extreme values may be limits of the assay
[1] = test system: AN3-CA (Endometrial Carcinoma)
Method in brief: (§1)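 Cell lines grown in DMEM/F12 or RPMI with 10% FBS were plated in 1536-well plates and held 24 hours at 37°C, 5% CO2 before 72 hours of exposure to two-drug dose matrices, with DMSO typically at 0.2%. CellTiter-Glo 2.0 luminescence gave viability, which was converted to inhibition. Vehicle wells were set to 0 and blank wells to 1. Combination Emax is the second-highest inhibition in the matrix, and Bliss excess is the observed combination effect minus the expected EA + EB − EA·EB, where EA and EB are the single-agent effects.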

[2] = test system: LAMA-84 (Chronic Myelogenous Leukemia)
Method in brief: as §1

[3] = test system: LOUCY (T-Lymphoblastic Leukemia)
Method in brief: as §1

[4] = test system: SW684 (Other Solid Carcinomas)
Method in brief: as §1

[5] = test system: RL95-2 (Endometrial Carcinoma)
Method in brief: as §1

[6] = test system: BALL-1 (B-Lymphoblastic Leukemia)
Method in brief: as §1

[7] = test system: NKM-1 (Acute Myeloid Leukemia)
Method in brief: as §1

[8] = test system: PANC-02-03 (Pancreatic Carcinoma)
Method in brief: as §1

[9] = test system: PC-14 (Lung Adenocarcinoma)
Method in brief: as §1

ES-2 (Ovarian Carcinoma) = test system: ES-2 (Ovarian Carcinoma)
Method in brief: as §1

[10] = test system: RERF-LC-KJ (Lung Adenocarcinoma)
Method in brief: as §1

[11] = test system: SJRH30 (Rhabdomyosarcoma)
Method in brief: as §1

[12] = test system: Caov-3 (Ovarian Carcinoma)
Method in brief: as §1

HuO-3N1 (Osteosarcoma) = test system: HuO-3N1 (Osteosarcoma)
Method in brief: as §1

RT4 (Bladder Carcinoma) = test system: RT4 (Bladder Carcinoma)
Method in brief: as §1

786-0 (Kidney Carcinoma) = test system: 786-0 (Kidney Carcinoma)
Method in brief: as §1

[13] = test system: NCI-H196 (Small Cell Lung Carcinoma)
Method in brief: as §1

[14] = test system: HSC-3 (Oral Cavity Carcinoma)
Method in brief: as §1

[15] = test system: CML-T1 (Chronic Myelogenous Leukemia)
Method in brief: as §1

[16] = test system: OV-90 (Ovarian Carcinoma)
Method in brief: as §1

Row | SMILES | combination Emax [1] | combination Emax [2] | combination Emax [3] | combination Emax [4] | combination Emax [5] | combination Emax [6] | combination Emax [7] | combination Emax [8] | combination Emax [9] | combination Emax (ES-2 (Ovarian Carcinoma)) | combination Emax [10] | combination Emax [11] | combination Emax [12] | combination Emax (HuO-3N1 (Osteosarcoma)) | combination Emax (RT4 (Bladder Carcinoma)) | combination Emax (786-0 (Kidney Carcinoma)) | combination Emax [13] | combination Emax [14] | combination Emax [15] | combination Emax [16]
1 | CC1(C)CCC(CN2CCN(c3ccc(C(=O)NS(=O)(=O)c4ccc(NCC5CCOCC5)c([N+](=O)[O-])c4)c(Oc4cnc5[nH]ccc5c4)c3)CC2)=C(c2ccc(Cl)cc2)C1 [Venetoclax] + Cc1cc2ncnn2cc1Nc1ncc2c(n1)n(C1CCOCC1)c(=O)n2C [AZD7648] (first compound max 1 µM, 7x7, partner max 10 µM) | 0.411 | 0.299 | 1 | 0.273 | 0.194 | 1 | 0.959 | 0.208 | 0.293 | 0.249 | 0.357 | 0.187 | 0.528 | 0.228 | 0.357 | 0.136 | 0.121 | 0.207 | 0.93 | 0.298
2 | CC1(C)CCC(CN2CCN(c3ccc(C(=O)NS(=O)(=O)c4ccc(NCC5CCOCC5)c([N+](=O)[O-])c4)c(Oc4cnc5[nH]ccc5c4)c3)CC2)=C(c2ccc(Cl)cc2)C1 [Venetoclax] + Cn1cnc2c(F)c(Nc3ccc(Br)cc3Cl)c(C(=O)NOCCO)cc21 [Selumetinib] (first compound max 1 µM, 7x7, partner max 3 µM) | 0.204 | 0.707 | 1 | 0.191 | 0.332 | 1 | 0.975 | 0.367 | 0.22 | 0.366 | 0.185 | 0.1 | 0.603 | 0.146 | 0.304 | 0.16 | 0.077 | 0.365 | 0.957 | 0.571
